From US6791014B2, “Use of HPPD inhibitors as selection agents in plant transformation” (Aventis Cropscience, S.A., priority 2000, dated 2004)

How the values were obtained:
Assay type in all cases: cell-based, soya bean (Glycine max (L.) Merrill)
[1] = tested on: soya bean embryogenic tissues; assay: Bleaching and growth of soya bean embryogenic tissues on medium with HPPD inhibitor; settings: tissues transferred for selection on isoxaflutole, D20 medium, 2 mg/l
Experimental: The same selection method was developed for the HPPD inhibitors, with a D20 medium comprising 2 mg/l of isoxaflutole or 0.5 to 5 mg/l of diketonitriles. The gene for tolerance to HPPD inhibitors which was used as a selection marker is pCH73 or pCH94 represented in FIG. 1. 10 to 15 days prior to the bombardment, the isoxaflutole or the diketonitriles are introduced into the D20 medium, at the abovementioned concentrations, so as to bleach the tissues. After bombardment, the tissues are placed directly in the same D20 medium comprising […] of isoxaflutole or diketonitrile (between 0.5 and 5 mg/l) and transferred into fresh medium every 15 days. After 4 transfers onto the isoxaflutole. green calluses are identified and amplified as described in Example 1. The time required for producing calluses of cells which are competent for the bombardment is 3 and a half months. The selection of the transformed cells (green calluses) occurs approximately 6 months after the initiation of the calluses for the transformation. […] This is due to the fact that the absence of carotenoids, of chlorophyll and of tocopherols is […] to the growth of tissues.

[2] = tested on: soya bean proliferative embryogenic tissues; assay: Transformation of soya bean embryogenic tissues by particle bombardment, HPPD inhibitor selection on D20 medium (green calluses); settings: bleaching after bombardment
[3] = tested on: soya bean proliferative embryogenic tissues; assay: Transformation of soya bean embryogenic tissues by particle bombardment, HPPD inhibitor selection on FNL medium (green calluses); settings: for mean number of green calluses selected per transformation trial: bleached tissues according to the invention, pooled over both plasmids
Text: In order to improve the selection process according to the invention, an attempt was made to decrease the number of tissue transfers and the time required for producing calluses of competent cells and green calluses selected after bombardment. To this effect, the D20 medium previously used was replaced with a modified FNL medium which allows rapid proliferation of the tissues. The FNL medium has been described by Samoylov, Tucker, Thibaud-Nissen & Parrott in: A liquid-medium-based protocol for rapid regeneration from embryogenic soya bean cultures: Plant Cell Rep, 18: 49-54, 1998. This medium makes it possible to produce tissues ready for bombardment more rapidly, greater embryogeny and shorter transfer cycles. Composition of the FNL medium: Na2EDTA: 37.24 mg/l; FeSO4, 7H2O: 27.84 mg/l; MgSO4, 7H2O: 370 mg/l; MnSO4. H2O: 16.9 mg/l; ZnSO4, H2O: 8.6 mg/l; CuSO4. 7H25O: 0.025 mg/l; CaCl2. 2H2O: 440 mg/l; KI: 0.83 mg/l; CoCl2. 6H2O: 0.025 mg/l; KH2PO4: 170 mg/l; H3BO3: 6.2 mg/l; Na2MoO4. 2H2O: 0.25 mg/l; myo-inositol: 100 mg/l; nicotinic acid: 1 mg/l; pyridoxine-HCl: 1 mg/l; thiamine-HCl: 10 mg/l; (NH4)2SO4: 460 mg/l; KNO3: 2820 mg/l; asparagine: 670 mg/l; 1% sucrose; 2.4-D: 10 mg/l; 0.3% […]; pH 5.7. […] The bombardment of tissues bleached with isoxaflutol according to the invention requires only one transfer of calluses before the selected green calluses are produced, against 4 when using the D20 medium. The time required for producing calluses from cells which are competent for the bombardment is 2 months, the transformed green calluses being selected approximately 3 months after the initiation of the calluses for transformation.

[4] = tested on: soya bean proliferative embryogenic tissues; assay: Transformation of soya bean embryogenic tissues by particle bombardment, HPPD inhibitor selection on D20 medium (green calluses); settings: bleaching before bombardment
Text: The technology used for transforming soya bean has been described by Santarem & Finer: Transformation of soya bean (Glycine max (L.) Merrill) using proliferative embryogenic tissue maintained on semi-solid medium. In Vitro Cell. Dev. Biol. Plant 35 451-455, 1999. It comprises the steps hereinafter.
Immature zygotic embryos (from 3 to 4 mm) are aseptically dissected and placed with the adaxial side upwards in a medium comprising 2.4D (D40).
After culturing for 3 weeks in D40 medium, the cotyledons are transferred onto a D20 medium which comprises essentially the same elements as the D40 medium, with the exception of the 2.4D concentration, which is decreased to […], and the sucrose concentration, which is decreased from 60 g/l to 30 g/l, at pH 5.7.
On this medium, the somatic embryos begin to proliferate in the form of compact aggregates or clumps. The embryogenic clumps are then transferred every two weeks onto a new D20 medium in order to increase the production of tissues. Five or six transfers (approximately 3 months) onto this medium are necessary in order to optimize their competence at transformation. The use of embryogenic tissues which are at an earlier stage produces much poorer results.
Particle bombardment is used for transforming the embryogenic tissues.
Particle preparation: flnctionalized tungsten (M17) particles are prepared according to U.S. Pat. No. 6,068,980. The particles are functionalized by grafting aminated silicones as the vectorization element, and washed in absolute ethanol. 2.5 mg of particles in ethanol are mixed with 3 μg of DNA. After precipitation, the particles are pipetted and used for two shots with a particle gun of the PIG type described by Finer, Vain, Lones and McMullen in: Development of the Particle Inflow Gun for DNA delivery to plant cells. Plant Cell Rep. 11: 323-328, 1992.
Before the bombardment, the tissues are dried under vacuum under a laminar-flow hood for 5 to 10 min, and then placed between two 500 μm screens and bombarded twice.
The same selection method was developed for the HPPD inhibitors, with a D20 medium comprising 2 mg/l of isoxaflutole or 0.5 to 5 mg/l of diketonitriles. The gene for tolerance to HPPD inhibitors which was used as a selection marker is pCH73 or pCH94 represented in FIG. 1.
In order to avoid handling tissues and to gain time, the bombarded calluses are placed on sterile gauze screen fixed with two metal rings which enable direct contact between the embryogenic tissues and the solid medium. The gauze screens are transferred onto fresh media every 15 days until green calluses are observed. It is understood that the principle of callus transfer described above is not limited to soya bean calluses and to selection with hygromycin, but may be used for any method for culturing tissues and cells suspensions which requires frequent changing of culture medium.
10 to 15 days prior to the bombardment, the isoxaflutole or the diketonitriles are introduced into the D20 medium, at the abovementioned concentrations, so as to bleach the tissues. After bombardment, the tissues are placed directly in the same D20 medium comprising […] of isoxaflutole or diketonitrile (between 0.5 and 5 mg/l) and transferred into fresh medium every 15 days. After 4 transfers onto the isoxaflutole. green calluses are identified and amplified as described in Example 1. The time required for producing calluses of cells which are competent for the bombardment is 3 and a half months. The selection of the transformed cells (green calluses) occurs approximately 6 months after the initiation of the calluses for the transformation.

[5] = bleaching before bombardment, attempt 1
[6] = bleaching before bombardment, attempt 2
[7] = bleaching before bombardment, attempt 3

Row | Molecule | bleaching of the tissues [1] | inhibition of growth of the tissues [1] | number of green calluses identified ([2]; attempt 1) | number of green calluses identified ([2]; attempt 2) | number of green calluses identified ([2]; attempt 3) | mean number of green calluses selected per transformation trial [3] [per shot] | number of green calluses selected [3, 5] | number of green calluses selected [3, 6] | number of green calluses selected [3, 7] | number of green calluses selected ([3]; bleaching before bombardment, attempt 4) | number of green calluses identified ([4]; attempt 1) | number of green calluses identified ([4]; attempt 2) | number of green calluses identified ([4]; attempt 3) | number of green calluses selected ([3]; bleaching after bombardment, attempt 1) | number of green calluses selected ([3]; bleaching after bombardment, attempt 2)
1 | CS(=O)(=O)c1cc(C(F)(F)F)ccc1C(=O)c1cnoc1C1CC1 [isoxaflutole] | rapidly bleached | without any inhibition of growth being observed |  |  |  |  |  |  |  |  |  |  |  |  | 
2 | pCH94: plasmid carrying gene for tolerance to HPPD inhibitors: Arabidopsis histone promoter, TEV enhancer, optimized transit peptide, HPPDW336, NOS terminator; SEQ ID NO 2 |  |  | 0.67 | 0.33 | 0.25 | 1 | 1 | 1 | 0.33 | 1.5 | 0.67 | 1 | 2 |  | 
3 | pCH73: plasmid carrying gene for tolerance to HPPD inhibitors: sunflower RuBisCo ssu promoter, optimized transit peptide, HPPDW336, NOS terminator; SEQ ID NO 1 |  |  | 0 | 0 | 0.25 | 1 | 1 | 1.5 | 0.33 |  | 0 | 0.5 | 0.25 | 0.25 | 0
